20 compounds from patent US11180474B2 (BRISTOL-MYERS SQUIBB COMPANY, priority 2016, dated 2021) can be followed below.

One experiment has as its target T1, human TLR8 (Homo sapiens, UniProt Q9NR97).
T1 construct: host or cells: HEK-Blue cells
T1 sequence (Q9NR97 27-1041): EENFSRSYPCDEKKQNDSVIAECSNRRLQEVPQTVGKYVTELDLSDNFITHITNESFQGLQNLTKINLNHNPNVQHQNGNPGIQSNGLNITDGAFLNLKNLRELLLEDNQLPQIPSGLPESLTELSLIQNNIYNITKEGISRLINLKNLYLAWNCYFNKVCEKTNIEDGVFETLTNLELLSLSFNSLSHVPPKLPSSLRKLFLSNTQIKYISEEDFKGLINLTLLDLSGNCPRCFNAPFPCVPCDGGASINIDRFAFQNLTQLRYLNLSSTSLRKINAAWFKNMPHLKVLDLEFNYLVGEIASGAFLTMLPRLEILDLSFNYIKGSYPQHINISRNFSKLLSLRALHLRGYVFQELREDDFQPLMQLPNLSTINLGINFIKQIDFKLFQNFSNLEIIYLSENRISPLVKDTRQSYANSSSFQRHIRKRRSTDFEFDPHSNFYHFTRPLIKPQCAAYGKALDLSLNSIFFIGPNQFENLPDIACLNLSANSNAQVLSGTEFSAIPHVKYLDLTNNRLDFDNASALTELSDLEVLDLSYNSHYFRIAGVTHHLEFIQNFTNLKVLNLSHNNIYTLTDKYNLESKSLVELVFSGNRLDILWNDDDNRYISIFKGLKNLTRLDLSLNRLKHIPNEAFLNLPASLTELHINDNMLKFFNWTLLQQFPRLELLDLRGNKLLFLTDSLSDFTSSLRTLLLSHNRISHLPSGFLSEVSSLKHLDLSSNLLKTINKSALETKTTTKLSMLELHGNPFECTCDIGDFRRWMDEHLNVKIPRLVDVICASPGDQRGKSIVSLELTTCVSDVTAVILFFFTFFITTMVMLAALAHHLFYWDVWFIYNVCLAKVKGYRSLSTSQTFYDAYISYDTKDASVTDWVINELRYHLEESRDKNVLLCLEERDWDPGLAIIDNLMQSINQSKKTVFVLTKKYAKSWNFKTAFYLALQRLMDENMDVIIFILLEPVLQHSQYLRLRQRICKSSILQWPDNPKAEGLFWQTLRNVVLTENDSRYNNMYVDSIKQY
Put plainly: TLR8 inhibition reporter assay (HEK-Blue cells, SEAP reporter, R848 stimulation). In kind it is cell-based. To be noted: HEK-Blue cells overexpressing human TLR8, R848 15.9 μM. In short, it runs like this:
(§1)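 22 h, 37° C, 5% CO2 incubation; compounds 0.05 nM-50 μM final; TLR7 cells 15000/well, TLR8 20,000/well. Readout: SEAP via HEK-Blue Detection medium. % inhibition = signal reduction versus agonist + DMSO wells, referenced to known inhibitor.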

Another experiment deals with T2, human TLR7 (Homo sapiens, UniProt Q9NYK1).
T2 construct: host or cells: HEK-Blue cells
T2 sequence (Q9NYK1 27-1049): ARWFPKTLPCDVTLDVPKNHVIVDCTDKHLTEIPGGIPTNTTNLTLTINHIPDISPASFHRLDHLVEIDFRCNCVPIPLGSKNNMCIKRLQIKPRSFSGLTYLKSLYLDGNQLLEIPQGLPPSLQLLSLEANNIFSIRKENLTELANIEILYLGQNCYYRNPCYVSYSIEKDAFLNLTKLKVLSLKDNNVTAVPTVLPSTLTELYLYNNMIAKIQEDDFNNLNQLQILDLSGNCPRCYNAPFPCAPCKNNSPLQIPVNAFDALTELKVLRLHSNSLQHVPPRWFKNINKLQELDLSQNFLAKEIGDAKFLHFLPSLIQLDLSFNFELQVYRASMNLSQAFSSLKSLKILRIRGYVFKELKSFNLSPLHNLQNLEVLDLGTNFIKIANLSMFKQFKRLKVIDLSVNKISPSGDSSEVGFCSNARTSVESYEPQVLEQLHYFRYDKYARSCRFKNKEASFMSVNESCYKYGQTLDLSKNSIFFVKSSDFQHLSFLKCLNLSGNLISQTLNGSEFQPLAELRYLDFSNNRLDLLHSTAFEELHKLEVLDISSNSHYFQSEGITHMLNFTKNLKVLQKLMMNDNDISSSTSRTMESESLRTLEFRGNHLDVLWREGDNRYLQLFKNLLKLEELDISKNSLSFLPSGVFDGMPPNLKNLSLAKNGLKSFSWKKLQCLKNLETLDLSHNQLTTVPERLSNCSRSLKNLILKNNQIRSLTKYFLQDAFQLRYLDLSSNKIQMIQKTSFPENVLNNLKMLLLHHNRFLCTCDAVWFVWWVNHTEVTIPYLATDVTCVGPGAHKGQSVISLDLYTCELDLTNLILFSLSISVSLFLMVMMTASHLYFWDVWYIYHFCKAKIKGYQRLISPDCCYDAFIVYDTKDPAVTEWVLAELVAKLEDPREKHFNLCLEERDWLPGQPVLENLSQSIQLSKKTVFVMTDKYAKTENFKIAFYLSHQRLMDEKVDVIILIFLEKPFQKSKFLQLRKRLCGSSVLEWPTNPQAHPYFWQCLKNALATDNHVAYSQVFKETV
Put plainly: TLR7 inhibition reporter assay (HEK-Blue cells, SEAP reporter, gardiquimod stimulation). It counts as cell-based. To be noted: HEK-Blue cells overexpressing human TLR7, gardiquimod 7.5 μM. In short, it runs like this: as §1

Some results are limits rather than exact numbers.

In the case of `COc1ccc(-c2[nH]c3ccc(C4CCNCC4F)cc3c2C(C)C)cc1OC` (racemic) [Example 319, 2-(3,4-dimethoxyphenyl)-5-(3-fluoropiperidin-4-yl)-3-isopropyl-1H-indole], the IC50 was 46 nM at human TLR8 and 45 nM against human TLR7.
In the same order, the values of `COc1ccc(-c2[nH]c3ccc(C4CCNCC4F)cc3c2C(C)C)cc1OC` (racemic) [Example 320, 2-(3,4-dimethoxyphenyl)-5-(3-fluoropiperidin-4-yl)-3-isopropyl-1H-indole] are 124 nM and 71 nM.
Take `COc1ccc(-c2[nH]c3ccc(C4CCNCC4F)cc3c2C(C)C)cc1OC` (single isomer, unassigned) [Example 321, 2-(3,4-dimethoxyphenyl)-5-(3-fluoropiperidin-4-yl)-3-isopropyl-1H-indole]: the figures for the half-maximal inhibitory concentration (IC50) at human TLR8 and against human TLR7 were 21 nM and 22 nM, respectively.
In the same order, the values of `COc1ccc(-c2[nH]c3ccc(C4CCNCC4F)cc3c2C(C)C)cc1OC` (single isomer, unassigned) [Example 322, 2-(3,4-dimethoxyphenyl)-5-(3-fluoropiperidin-4-yl)-3-isopropyl-1H-indole] are 22 nM and 21 nM.
For `COc1ccc(-c2[nH]c3ccc(C4CCNCC4F)cc3c2C(C)C)cc1OC` (single isomer, unassigned) [Example 323, 2-(3,4-dimethoxyphenyl)-5-(3-fluoropiperidin-4-yl)-3-isopropyl-1H-indole], the half-maximal inhibitory concentration (IC50) against human TLR8 is 20 nM; against human TLR7, 42 nM.
For `COc1ccc(-c2[nH]c3ccc(C4CCNCC4F)cc3c2C(C)C)cc1OC` (single isomer, unassigned) [Example 324, 2-(3,4-dimethoxyphenyl)-5-(3-fluoropiperidin-4-yl)-3-isopropyl-1H-indole], the IC50 against human TLR8 came out at 20 nM; against human TLR7, 51 nM.
Take `CCN1CCCC(N2CCC(c3ccc4[nH]c(-c5ccc(OC)c(OC)c5)c(C)c4c3)CC2)C1` (stereo not shown) [Example 24, 2-(3,4-dimethoxyphenyl)-5-(1′-ethyl-[1,3′-bipiperidin]-4-yl)-3-methyl-1H-indole]: the IC50 is 27900 nM against human TLR8 and ≥ 50000 nM against human TLR7.
On to `COc1ccc(-c2[nH]c3ccc(C4CCNCC4(F)F)cc3c2C(C)C)cc1OC` (stereo not shown) [Example 325, 5-(3,3-difluoropiperidin-4-yl)-2-(3,4-dimethoxyphenyl)-3-isopropyl-1H-indole], for which the IC50 against human TLR8 worked out at 147 nM; on human TLR7, 269 nM.
For `COc1ccc(-c2[nH]c3ccc(C4CCNC(=O)C4)cc3c2C(C)C)cc1OC` (stereo not shown) [Example 326, 4-(2-(3,4-dimethoxyphenyl)-3-isopropyl-1H-indol-5-yl)piperidin-2-one], the IC50 is 192 nM at human TLR8 and 127 nM against human TLR7.
As for `COc1ccc(-c2[nH]c3ccc(C4CCNCC4)cc3c2CC(F)(F)F)cc1OC` [Example 329, 2-(3,4-dimethoxyphenyl)-5-(piperidin-4-yl)-3-(2,2,2-trifluoroethyl)-1H-indole], the IC50 at human TLR8 turned out to be 19 nM; at human TLR7 it was 15 nM.
In the same order, the values of `COc1ccc(-c2[nH]c3ccc(C4CCN(C(=O)CCN5CCCCC5)CC4)cc3c2CC(F)(F)F)cc1OC` [Example 330, 1-(4-(2-(3,4-dimethoxyphenyl)-3-(2,2,2-trifluoroethyl)-1H-indol-5-yl)piperidin-1-yl)-3-(piperidin-1-yl)propan-1-one] are 84 nM and 57 nM.
As for `COc1ccc(-c2[nH]c3ccc(C4CCN(C(=O)CCCn5ccnc5)CC4)cc3c2CC(F)(F)F)cc1OC` [Example 331, 1-(4-(2-(3,4-dimethoxyphenyl)-3-(2,2,2-trifluoroethyl)-1H-indol-5-yl)piperidin-1-yl)-4-(1H-imidazol-1-yl)butan-1-one], the values for the IC50 at human TLR8 and against human TLR7 were 221 nM and 33 nM, respectively.
Regarding `COc1ccc(-c2[nH]c3ccc(C4CCN(C(=O)Cc5c[nH]c6ccccc56)CC4)cc3c2CC(F)(F)F)cc1OC` [Example 332, 1-(4-(2-(3,4-dimethoxyphenyl)-3-(2,2,2-trifluoroethyl)-1H-indol-5-yl)piperidin-1-yl)-2-(1H-indol-3-yl)ethan-1-one], the IC50 against human TLR8 turned out to be 4110 nM; against human TLR7, 1860 nM.
In the same order, the values of `COc1ccc(-c2[nH]c3ccc(C4CCN(C(=O)CCC(N)=O)CC4)cc3c2CC(F)(F)F)cc1OC` [Example 333, 4-(4-(2-(3,4-dimethoxyphenyl)-3-(2,2,2-trifluoroethyl)-1H-indol-5-yl)piperidin-1-yl)-4-oxobutanamide] are 702 nM and 94 nM.
For `COc1ccc(-c2[nH]c3ccc(C4CCN(C(=O)Cc5c[nH]cn5)CC4)cc3c2CC(F)(F)F)cc1OC` [Example 334, 1-(4-(2-(3,4-dimethoxyphenyl)-3-(2,2,2-trifluoroethyl)-1H-indol-5-yl)piperidin-1-yl)-2-(1H-imidazol-4-yl)ethan-1-one], in that order: 412 nM and 130 nM.
In the same order, the values of `COc1ccc(-c2[nH]c3ccc(C4CCN(C(=O)Cc5cccnc5)CC4)cc3c2CC(F)(F)F)cc1OC` [Example 335, 1-(4-(2-(3,4-dimethoxyphenyl)-3-(2,2,2-trifluoroethyl)-1H-indol-5-yl)piperidin-1-yl)-2-(pyridin-3-yl)ethan-1-one] are 632 nM and 331 nM.
On to `COc1ccc(-c2[nH]c3ccc(C4CCN(C(=O)[C@@H]5CCCN5C(C)=O)CC4)cc3c2CC(F)(F)F)cc1OC` [Example 336, (S)-1-(2-(4-(2-(3,4-dimethoxyphenyl)-3-(2,2,2-trifluoroethyl)-1H-indol-5-yl)piperidine-1-carbonyl)pyrrolidin-1-yl)ethan-1-one], for which the IC50 turned out to be 697 nM at human TLR8 and 359 nM on human TLR7.
For the compound `COc1ccc(-c2[nH]c3ccc(C4CCN(C(=O)CCn5ccc6ccccc65)CC4)cc3c2CC(F)(F)F)cc1OC` [Example 337, 1-(4-(2-(3,4-dimethoxyphenyl)-3-(2,2,2-trifluoroethyl)-1H-indol-5-yl)piperidin-1-yl)-3-(1H-indol-1-yl)propan-1-one], the IC50 is 5080 nM at human TLR8 and 3570 nM against human TLR7.
Take `COc1ccc(-c2[nH]c3ccc(C4CCN(C(=O)Cc5ccc(N(C)C)cc5)CC4)cc3c2CC(F)(F)F)cc1OC` [Example 338, 1-(4-(2-(3,4-dimethoxyphenyl)-3-(2,2,2-trifluoroethyl)-1H-indol-5-yl)piperidin-1-yl)-2-(4-(dimethylamino)phenyl)ethan-1-one]: the IC50 on human TLR8 worked out at 1460 nM; against human TLR7, 1490 nM.
In the same order, the values of `COc1ccc(-c2[nH]c3ccc(C4CCN(C(=O)CC(F)(F)F)CC4)cc3c2CC(F)(F)F)cc1OC` [Example 339, 1-(4-(2-(3,4-dimethoxyphenyl)-3-(2,2,2-trifluoroethyl)-1H-indol-5-yl)piperidin-1-yl)-3,3,3-trifluoropropan-1-one] are 822 nM and 331 nM.

As a reminder, the IC50 is the concentration that inhibits the measured activity by half.
